Measured values as given in US4350691A, “Certain azabicyclocarboxamides and compositions containing same” (Beecham Group Limited, priority 1979, dated 1982).

How the values were obtained:
Type in all cases: in vivo
vomiting response = experiment: Anti-emetic Activity in the Dog (apomorphine HCl vomiting response); conditions: Canis lupus familiaris, 0.5 h; s.c., 30 minutes prior to apomorphine HCl 0.1 mg/kg subcutaneously; read-out: dose that totally inhibited the vomiting response
Description: Compounds were administered subcutaneously 30 minutes, or per os 2 hr, prior to administration of a standard dose of apomorphine HCl (0.1 mg/kg subcutaneously) and the vomiting response compared to that obtained when the same animals were dosed with apomorphine HCl and vehicle only.

gastric motility = experiment: Gastric Motility Testing in the Rat (reversal of the inhibition effect of 6,7-ADTN); conditions: conscious chronic gastric fistula rat; for reversal of the reduction of basal gastric motor activity by 6,7-ADTN: 10 minutes after 6,7-ADTN 1 mg/kg s.c.
Description: The compounds were tested for ability to reverse the inhibition effect of 6,7-ADTN on gastric motility recorded by an open tipped catheter in the conscious chronic gastric fistula rat. […] For subcutaneous testing the compounds were dissolved in water by the addition of tartaric acid (1/2 mole per mole of compound).

dopamine receptor = experiment: Inhibition of Apomorphine Induced Climbing in the Mouse; conditions: for Activity % Inhibition: apomorphine induced climbing, apomorphine 1 mg/kg s.c., orally 30 min prior
Description: The compound prepared in Example 3 was tested for inhibition of apomorphine induced climbing behaviour in the mouse. This is indicative of dopamine receptor blockade in the central nervous system.
The test is based on that described by Protais, P., Constantin, J. and Schwartz, J. C. (1976), Psychopharmacology, 50, 1-6.
Apomorphine 1 mg/kg s.c. induces mice to climb the wall of a wire cage (inverted food hopper--11×7.5×18 cm high). Mice acclimatised in their home cages in groups of 5 are placed under the hoppers immediately after the injection of apomorphine 1 mg/kg s.c. At 10,20 and 30 minutes after injection climbing behaviour is scored. The mice are observed for 30 seconds and scored according to the position they spend the majority of time in, score 0--four paws on floor of cage; score 1--fore paws only on walls; score 2--all paws on wall of cage. The scores at all 3 times and for each mouse are summed and mice drug treated orally 30 min. prior to apomorphine compared to mice receiving apomorphine only. A saline only treated group is also included and any score, generally 5% of maximum taken into account.

Structure (SMILES): COc1ccc(S(C)(=O)=O)cc1NC(=O)[C@@H]1C[C@H]2CC[C@@H](C1)N2Cc1ccccc1 [Compound 24, 4-methylsulphonyl-2-(8'-benzyl-8'-azabicyclo[3,2,1]octane-3'β-carboxamido)anisole]
- ED100 (vomiting response): 0.1 mg/kg
- reversal of the reduction of basal gastric motor activity by 6,7-ADTN (gastric motility; compound 1 mg/kg s.c.): reversed

Structure (SMILES): COc1ccc(NC(=O)[C@@H]2C[C@H]3CC[C@@H](C2)N3Cc2ccccc2)c(OC)c1 [Compound 20, 3-methoxy-4-[8'-benzyl-8'-azabicyclo[3.2.1]octane-3β'-carboxamido]anisole]
- Activity % Inhibition (dopamine receptor; compound dose 10 mg/kg): 100%

Structure (SMILES): COc1ccc(CN2[C@@H]3CC[C@H]2C[C@H](C(=O)Nc2cc(Cl)c(N)cc2OC)C3)cc1 [Compound 48, 5-amino-4-chloro-2-(8'-[4"-methoxybenzyl]-8'-azabicyclo [3.2.1]octane-3'β-carboxamido)anisole]
- Activity % Inhibition (dopamine receptor; compound dose 10 mg/kg): 100%

Structure (SMILES): COc1cc(N)c(Cl)cc1NC(=O)[C@@H]1C[C@H]2CC[C@@H](C1)N2CCC(C)C [Compound 53, 5-amino-4-chloro-2-(8'-3"-methylbutyl-8'-azabicyclo [3.2.1]octane-3'β-carboxamido)anisole]
- Activity % Inhibition (dopamine receptor; compound dose 10 mg/kg): 56%

Structure (SMILES): COc1ccc(S(N)(=O)=O)cc1NC(=O)[C@@H]1C[C@H]2CC[C@@H](C1)N2Cc1ccccc1 [Compound 25, 4-aminosulphonyl-2-(8'benzyl-8'-azabicyclo[3.2.1]octane-3'β-carboxamido)anisole]
- reversal of the reduction of basal gastric motor activity by 6,7-ADTN (gastric motility; compound 5 mg/kg s.c.): reversed

Structure (SMILES): COc1cc(N)c(Cl)cc1NC(=O)[C@@H]1C[C@H]2CC[C@@H](C1)N2Cc1ccc(Cl)cc1 [Compound 46, 5-amino-4-chloro-2-(8'-(4"-chlorobenzyl)-8'-azabicyclo [3.2.1]octane-3'β-carboxamido)anisole]
- Activity % Inhibition (dopamine receptor; compound dose 10 mg/kg): 100%

Structure (SMILES): COc1cc(N)c(Cl)cc1NC(=O)[C@@H]1C[C@H]2CC[C@@H](C1)N2CC1CCCCC1 [Compound 55, 5-amino-4-chloro-2-(8'-cyclohexylmethyl-8'-azabicyclo [3.2.1]octane-3'β-carboxamido)anisole]
- Activity % Inhibition (dopamine receptor; compound dose 50 mg/kg): 100%

Structure (SMILES): COc1cc(N)c(Cl)cc1NC(=O)[C@@H]1C[C@H]2CC[C@@H](C1)N2Cc1ccc(Cl)c(Cl)c1 [Compound 45, 5-amino-4-chloro-2-(8'-[3",4"-dichlorobenzyl]-8'-azabicyclo[3.2.1]octane-3β'-carboxamido)anisole]
- Activity % Inhibition (dopamine receptor; compound dose 10 mg/kg): 100%

Structure (SMILES): COc1cc(N)c(Cl)cc1NC(=O)[C@@H]1C[C@H]2CC[C@@H](C1)N2Cc1ccccc1 [Compound 44, 5-Amino-4-chloro-2-[8'-benzyl-8'-azabicyclo-[3.2.1]octane-3'β-carboxamido]-anisole]
- Activity % Inhibition (dopamine receptor; compound dose 1 mg/kg): 100%
- ED50 (dopamine receptor; inhibition of apomorphine induced climbing, orally 30 min prior to apomorphine 1 mg/kg s.c.): 0.05 mg/kg

Structure (SMILES): COc1cc(NC(C)=O)c(Cl)cc1NC(=O)[C@@H]1C[C@H]2CC[C@@H](C1)N2Cc1ccccc1 [Compound 62, 5-Acetamido-4-chloro-2-[8-benzyl-8-azabicyclo (3,2,1)acetone-3β-carboxamido]anisole]
- Activity % Inhibition (dopamine receptor; compound dose 2 mg/kg): 95%

Structure (SMILES): NC1CCc2cc(O)c(O)cc2C1 (stereo not drawn) [6,7-ADTN, reference compound]
- basal gastric motor activity (gastric motility; 6,7-ADTN 1 mg/kg s.c.): reduced basal gastric motor activity

Structure (SMILES): COc1ccc(OC)c(NC(=O)[C@@H]2C[C@H]3CC[C@@H](C2)N3Cc2ccccc2)c1 [Compound 21, 4-methoxy-2-(8'-benzyl-8'-azabicyclo[3.2.1]octane-3β-carboxamido)anisole]
- Activity % Inhibition (dopamine receptor; compound dose 2 mg/kg): 60%

Structure (SMILES): COc1cc(N)c(Cl)cc1NC(=O)[C@@H]1C[C@H]2CC[C@@H](C1)N2Cc1ccc(C)cc1 [Compound 47, 5-amino-4-chloro-2-(8'-[4"-methylbenzyl]-8'-azabicyclo [3.2.1]octane-3'β-carboxamido)anisole]
- Activity % Inhibition (dopamine receptor; compound dose 10 mg/kg): 100%
